Test results published in ChEMBL document CHEMBL1144677, “Novel quinazolinone derivatives as 5-HT7 receptor ligands” (Bioorg Med Chem, 2008).

Assays:
[1] = molecular target: T1, 5-hydroxytryptamine receptor 1A (Homo sapiens, UniProt P08908)
T1 sequence (P08908 whole entry): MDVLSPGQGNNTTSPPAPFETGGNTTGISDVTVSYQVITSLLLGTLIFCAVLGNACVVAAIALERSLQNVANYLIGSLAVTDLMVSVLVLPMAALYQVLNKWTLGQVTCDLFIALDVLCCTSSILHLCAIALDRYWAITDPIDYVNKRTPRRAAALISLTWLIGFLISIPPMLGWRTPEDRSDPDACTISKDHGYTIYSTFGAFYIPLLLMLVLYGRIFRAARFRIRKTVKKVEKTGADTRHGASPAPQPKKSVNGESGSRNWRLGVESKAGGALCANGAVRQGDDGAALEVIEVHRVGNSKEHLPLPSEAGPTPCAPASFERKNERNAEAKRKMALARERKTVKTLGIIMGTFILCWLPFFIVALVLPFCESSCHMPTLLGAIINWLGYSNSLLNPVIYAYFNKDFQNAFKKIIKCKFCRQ
Description: Binding affinity at 5HT1A receptor

[2] = molecular target: 5-hydroxytryptamine receptor 2A (Homo sapiens, UniProt P28223)
5-hydroxytryptamine receptor 2A, sequence (P28223 whole entry): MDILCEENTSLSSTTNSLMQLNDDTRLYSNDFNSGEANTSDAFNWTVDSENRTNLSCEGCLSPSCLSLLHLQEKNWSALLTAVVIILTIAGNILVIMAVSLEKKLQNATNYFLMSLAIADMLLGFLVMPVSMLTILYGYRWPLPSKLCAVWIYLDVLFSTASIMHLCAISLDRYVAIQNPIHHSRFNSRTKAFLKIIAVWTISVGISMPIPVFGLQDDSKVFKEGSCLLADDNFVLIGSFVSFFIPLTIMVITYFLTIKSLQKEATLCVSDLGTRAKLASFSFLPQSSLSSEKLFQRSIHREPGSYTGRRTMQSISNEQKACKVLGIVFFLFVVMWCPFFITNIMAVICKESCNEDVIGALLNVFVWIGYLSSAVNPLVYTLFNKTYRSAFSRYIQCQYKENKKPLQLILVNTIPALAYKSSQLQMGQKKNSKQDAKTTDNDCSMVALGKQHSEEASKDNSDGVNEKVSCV
Description: Binding affinity at 5HT2A receptor

D(2) dopamine receptor = D(2) dopamine receptor (Homo sapiens, UniProt P14416)
D(2) dopamine receptor, sequence (P14416 whole entry): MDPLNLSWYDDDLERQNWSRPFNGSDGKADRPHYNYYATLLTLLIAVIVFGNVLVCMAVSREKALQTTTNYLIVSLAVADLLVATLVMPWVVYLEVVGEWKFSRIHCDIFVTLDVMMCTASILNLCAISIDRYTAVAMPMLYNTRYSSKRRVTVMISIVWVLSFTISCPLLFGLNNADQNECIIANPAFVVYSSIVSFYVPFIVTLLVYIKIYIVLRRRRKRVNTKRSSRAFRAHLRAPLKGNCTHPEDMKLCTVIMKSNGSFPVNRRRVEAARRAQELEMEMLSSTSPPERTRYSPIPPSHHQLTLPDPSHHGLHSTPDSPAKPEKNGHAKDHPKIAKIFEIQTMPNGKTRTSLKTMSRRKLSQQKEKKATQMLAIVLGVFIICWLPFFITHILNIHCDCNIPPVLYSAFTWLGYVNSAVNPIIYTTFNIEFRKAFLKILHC
Description: Binding affinity at dopamine D2 receptor

[3] = molecular target: T2, 5-hydroxytryptamine receptor 2C (Homo sapiens, UniProt P28335)
T2 sequence (P28335 whole entry): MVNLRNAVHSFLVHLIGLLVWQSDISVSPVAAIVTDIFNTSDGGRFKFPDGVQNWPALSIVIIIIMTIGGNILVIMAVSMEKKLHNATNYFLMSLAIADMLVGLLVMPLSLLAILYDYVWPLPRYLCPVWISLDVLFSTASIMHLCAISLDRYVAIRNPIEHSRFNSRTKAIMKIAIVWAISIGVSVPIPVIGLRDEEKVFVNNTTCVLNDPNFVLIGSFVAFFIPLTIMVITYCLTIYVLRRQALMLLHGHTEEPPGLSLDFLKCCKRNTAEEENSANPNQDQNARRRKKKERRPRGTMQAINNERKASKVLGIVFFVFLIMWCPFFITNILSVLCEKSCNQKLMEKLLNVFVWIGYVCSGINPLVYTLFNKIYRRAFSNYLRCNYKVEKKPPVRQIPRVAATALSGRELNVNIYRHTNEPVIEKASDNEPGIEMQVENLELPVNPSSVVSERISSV
Description: Binding affinity at 5HT2C receptor

IC50 [1] | IC50 [2] | IC50 (D(2) dopamine receptor) | IC50 [3] | SMILES
140 nM | 620 nM | 6600 nM | 1300 nM | O=C(CCCN1CCN(c2cccc(C(F)(F)F)c2)CC1)NCc1nc2cc(F)ccc2c(=O)n1-c1ccccc1
500 nM | > 10000 nM | 1000 nM | 1600 nM | CCOc1ccccc1N1CCN(CCCC(=O)NCc2nc3ccc(F)cc3c(=O)n2-c2ccccc2)CC1
220 nM | 420 nM | 4000 nM | 80 nM | Cc1cccc(N2CCN(CCCC(=O)NCc3nc4ccc(F)cc4c(=O)n3-c3ccccc3)CC2)c1C
960 nM | > 10000 nM | 5300 nM | 220 nM | COc1ccccc1N1CCN(CCCC(=O)NCc2nc3ccc(F)cc3c(=O)n2-c2ccccc2)CC1
500 nM | 1100 nM | 6900 nM |  | Cc1cccc(N2CCN(CCCC(=O)NCc3nc4ccccc4c(=O)n3-c3ccccc3)CC2)c1C
